Results from patent US20240166639A1, “POTENT AND SELECTIVE COMPOUNDS AS SEROTONIN 1B RECEPTOR MODULATORS” (LEUKOS BIOTECH, S.L., priority 2020, published 2024).
Structures can show the parent of a compound that is named as a salt.

Tests used:
HL-60 = experiment: Cell viability assay, AML cell line HL-60; assay type: cell-based; details: 48 h treatment, live cells by flow cytometry
Protocol: (§1) 0.15×10^6 AML cell lines (HL-60 or MonoMac-1) per mL were cultured in completed RPMI medium, supplemented with 10% Fetal bovine serum (FBS). Compounds were added to the medium at the concentration indicated (0.1, 1 and 10 μM), while controls were treated with equivalent concentration of vehicle (DMSO). Primary validation screenings were analyzed after 72 h of treatment, EC50 was determined upon 48 h treatments. Cells were stained with the live-dead discrimination dye 7-aminoactinomycin D (7-AAD) and Hoechst 33342 and acquired in a flow cytometer, with a volumetric counting. Live cells were discriminated based on a discrete FSC-SSC profile, 7-AAD negativity and dim positivity to Hoechst 33342. EC50 was calculated with the Prism GraphPad software.

MonoMac-1 = experiment: Cell viability assay, AML cell line MonoMac-1; assay type: cell-based; details: 48 h treatment, live cells by flow cytometry
Protocol: as §1

human 5-HT1B receptor = human 5-HT1B receptor (Homo sapiens (Human), UniProt P28222); experiment: Competition binding in human 5-HT1B receptor; details: [3H]-GR125743, Hela-5-HT1B membranes; read-out: h5-HT1B Ki
human 5-HT1B receptor, sequence (P28222 whole entry): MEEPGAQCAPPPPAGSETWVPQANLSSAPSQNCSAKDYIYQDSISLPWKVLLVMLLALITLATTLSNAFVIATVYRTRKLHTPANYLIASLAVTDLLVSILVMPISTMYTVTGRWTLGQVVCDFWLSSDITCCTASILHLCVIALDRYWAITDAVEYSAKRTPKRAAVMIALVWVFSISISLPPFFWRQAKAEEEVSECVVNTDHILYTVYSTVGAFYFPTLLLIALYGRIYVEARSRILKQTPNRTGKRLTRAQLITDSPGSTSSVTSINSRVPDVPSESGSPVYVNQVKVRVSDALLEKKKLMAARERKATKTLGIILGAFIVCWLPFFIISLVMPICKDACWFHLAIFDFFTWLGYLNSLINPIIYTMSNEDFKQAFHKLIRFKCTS
Protocol: Serotonin 5-HT1B receptor competition binding experiments were carried out in a polypropylene 96-well plate. In each well was incubated 5 μg of membranes from Hela-5-HT1B cell line prepared in the laboratory (Lot: A001/14-11-2011, protein concentration=3179 μg/ml), 1.5 nM [^3H]-GR125743 ([…], 0.1 mCi/ml, Perkin Elmer NET1172100UC) and compounds studied and standard. Non-specific binding was determined in the presence of GR55562 10 μM (TOCRIS 1054). The reaction mixture (Vt: 250 μl/well) was incubated at 25° C. for 90 min, 200 μL was transfered to GF/C 96-well plate (Millipore, Madrid, Spain) pretreated with 0.5% of PEI and treated with binding buffer (Tris-HCl 50 mM, EDTA 1 mM, MgCl2 10 mM, pH=7.4), after was filtered and washed four times with 250 μl wash buffer (Tris-HCl 50 mM, pH=7.4), before measuring in a microplate beta scintillation counter (Microbeta Trilux, PerkinElmer, Madrid, Spain). […] From the IC50 the Ki is calculated according to the following formula: […]
(§2) Being: • IC50: inhibitory concentration, • D: real concentration of radioligand and • Kd: dissociation constant (affinity of radioligand to the receptor).

human 5-HT2A receptor = human 5-HT2A receptor (Homo sapiens (Human), UniProt P28223); experiment: Competition binding in human 5-HT2A receptor; details: [3H]-Ketanserin, CHO-5-HT2A membranes; read-out: h5-HT2A Ki
human 5-HT2A receptor, sequence (P28223 whole entry): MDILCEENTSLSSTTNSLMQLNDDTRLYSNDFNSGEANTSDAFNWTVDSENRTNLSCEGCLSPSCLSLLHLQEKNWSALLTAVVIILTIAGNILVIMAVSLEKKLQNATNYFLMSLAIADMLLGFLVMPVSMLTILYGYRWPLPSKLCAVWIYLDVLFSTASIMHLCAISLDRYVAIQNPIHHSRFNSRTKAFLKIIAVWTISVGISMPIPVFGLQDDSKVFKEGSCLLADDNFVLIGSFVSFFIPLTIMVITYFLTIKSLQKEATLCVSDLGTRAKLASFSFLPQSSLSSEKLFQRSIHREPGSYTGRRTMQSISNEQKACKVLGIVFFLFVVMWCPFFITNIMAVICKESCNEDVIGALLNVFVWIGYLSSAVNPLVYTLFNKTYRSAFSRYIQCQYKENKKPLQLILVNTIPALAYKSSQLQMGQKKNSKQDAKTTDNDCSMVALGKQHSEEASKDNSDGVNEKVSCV
Protocol: Serotonin 5-HT2A receptor competition binding experiments were carried out in a polypropilene 96-well plate. In each well was incubated 80 μg of membranes from CHO-5-HT2A cell line prepared in the laboratory (protein concentration=4337 μg/ml), 1 nM [^3H]-Ketanserin (47.3 Ci/mmol, 1 mCi/ml, Perkin Elmer NET791250UC) and compounds studied and standard. Non-specific binding was determined in the presence of Methysergide 1 μM (Sigma M137). The reaction mixture (Vt: 250 μl/well) was incubated at 37° C. for 30 min, 200 μL was transfered to GF/B 96-well plate (Millipore, Madrid, Spain) pretreated with 0.5% of PEI and treated with binding buffer (Tris-HCl 50 mM, pH=7.4), after was filtered and washed six times with 250 μl wash buffer (Tris-HCl 50 mM, pH=6.6), before measuring in a microplate beta scintillation counter (Microbeta Trilux, PerkinElmer, Madrid, Spain).
The raw radioactivity data is adjusted to a logistic regression of 4 parameters using GraphPad Prism software, from the specific junction the value of IC50 is obtained. From the IC50 the Ki is calculated according to the following formula: […]
as §2

Row | Compound | EC50 (HL-60; Homo sapiens, HL-60) [µM] | EC50 (HL-60) [µM] | EC50 (MonoMac-1; Mono-Mac-1) [µM] | EC50 (MonoMac-1) [µM] | Ki (human 5-HT1B receptor) [µM] | Ki (human 5-HT2A receptor) [µM]
1 | Cc1nc(-c2ccc(-c3ccc(C(=O)Nc4ccc(Br)c(OCCN(C)C)c4)cn3)c(Cl)c2)no1 [Example 3, N-(4-bromo-3-(2-(dimethylamino)ethoxy)phenyl)-6-(2-chloro-4-(5-methyl-1,2,4-oxadiazol-3-yl)phenyl)nicotinamide] | 1.62 | – | 0.87 | – | – | –
2 | COc1cc(-c2noc(C)n2)ccc1-c1ccc(C(=O)Nc2ccc(Br)c(OCCN(C)C)c2)cn1 [Example 5, N-(4-bromo-3-(2-(dimethylamino)ethoxy)phenyl)-6-(2-methoxy-4-(5-methyl-1,2,4-oxadiazol-3-yl)phenyl)nicatinamide] | – | 1.18 | – | 1.14 | – | –
3 | Cc1nc(-c2ccc(-c3ccc(C(=O)Nc4ccc(C#N)c(OCCN(C)C)c4)cn3)c(F)c2)no1 [Example 8, N-(4-cyano-3-(2-(dimethylamino)ethoxy)phenyl)-6-(2-fluoro-4-(5-methyl-1,2,4-oxadiazol-3-yl)phenyl)nicotinamide] | 2.81 | – | 2 | – | – | –
4 | Cc1nc(-c2ccc(-c3ccc(C(=O)Nc4cc(OCCN(C)C)c(Br)cn4)cc3)c(Cl)c2)no1 [Example 17, N-(5-bromo-4-(2-(dimethylamino)ethoxy)pyridin-2-yl)-2′-chloro-4′-(5-methyl-1,2,4-oxadiazol-3-yl)-[1,1′-biphenyl]-4-carboxamide] | 2.65 | – | 1.32 | – | – | –
5 | COc1cc(-c2noc(C)n2)ccc1-c1ccc(C(=O)Nc2cc(OCCN(C)C)c(C#N)cn2)cc1 [Example 25, N-(5-cyano-4-(2-(dimethylamino)ethoxy)pyridin-2-yl)-2′-methoxy-4′-(5-methyl-1,2,4-oxadiazol-3-yl)-[1,1′-biphenyl]-4-carboxamide] | 2.8 | – | 2.69 | – | – | –
6 | Cc1nc(-c2ccc(-c3ccc(C(=O)Nc4cc(OCCN(C)C)c(Br)cn4)cn3)c(F)c2)no1 [Example 40, N-(5-bromo-4-(2-(dimethylamino)ethoxy)pyridin-2-yl)-6-(2-fluoro-4-(5-methyl-1,2,4-oxadiazol-3-yl)phenyl)nicotinamide] | 1.01 | – | 0.57 | – | 0.0035 | 1.5
7 | Cc1nc(-c2ccc(-c3ccc(C(=O)Nc4cc(OCCN(C)C)c(Br)cn4)cn3)c(Cl)c2)no1 [Example 41, N-(5-bromo-4-(2-(dimethylamino)ethoxy)pyridin-2-yl)-6-(2-chloro-4-(5-methyl-1,2,4-oxadiazol-3-yl)phenyl)nicotinamide] | – | – | – | – | 0.0003 | 1
8 | Cc1nc(-c2ccc(-c3ccc(C(=O)Nc4cc(OCCN(C)C)c(Br)cn4)cn3)c(C(F)(F)F)c2)no1 [Example 42, N-(5-bromo-4-(2-(dimethylamino)ethoxy)pyridin-2-yl)-6-(4-(5-methyl-1,2,4-oxadiazol-3-yl)-2-(trifluoromethyl)phenyl)nicotinamide] | – | – | – | – | 0.002 | 3.5
9 | Cc1nc(-c2ccc(-c3ccc(C(=O)Nc4ccc(Br)c(OCCN(C)C)n4)cn3)c(C3CC3)c2)no1 [Example 51, N-(5-bromo-6-(2-(dimethylamino)ethoxy)pyridin-2-yl)-6-(2-cyclopropyl-4-(5-methyl-1,2,4-oxadiazol-3-yl)phenyl)nicotinamide] | 1.99 | – | 1.2 | – | – | –
10 | Cc1nc(-c2ccc(-c3ccc(C(=O)Nc4ccc(C#N)c(OCCN(C)C)n4)cn3)c(Cl)c2)no1 [Example 56, 6-(2-chloro-4-(5-methyl-1,2,4-oxadiazol-3-yl)pheny)-N-(5-cyano-6-(2-(dimethylamino)ethoxy)pyridin-2-yl)nicotinamide] | – | 0.62 | – | 2.02 | – | –
11 | Cc1nc(-c2ccc(-c3ccc(C(=O)Nc4ncc(Br)c(OCCN(C)C)n4)cn3)c(F)c2)no1 [Example 58, N-(5-bromo-4-(2-(dimethylamino)ethoxy)pyrimidin-2-yl)-6-(2-fluoro-4-(5-methyl-1,2,4-oxadiazol-3-yl)phenyl)nicotinamide] | 3.79 | – | 2.61 | – | – | –
12 | Cc1nc(-c2ccc(-c3ccc(C(=O)N4CCc5cc6c(cc54)C4(CCN(C)CC4)CO6)cc3)c(C)c2)no1 [SB9, 1′-Methyl-5-[[2′-methyl-4′-(5-methyl-1,2,4-oxadiazol-3-yl)biphenyl-4-yl]carbonyl]-2,3,6,7-tetrahydrospiro[furo[2,3-f]indole-3,4′-piperidine hydrochloride, reference compound] | 4.78 | – | 1.18 | – | – | 0.00592

The next lines start with results.

Row | EC50 (HL-60; Homo sapiens, HL-60) [µM] | EC50 (HL-60) [µM] | Compound | EC50 (MonoMac-1; Mono-Mac-1) [µM] | EC50 (MonoMac-1) [µM] | Ki (human 5-HT1B receptor) [µM] | Ki (human 5-HT2A receptor) [µM]
13 | 1 | – | Cc1nc(-c2ccc(-c3ccc(C(=O)Nc4ccc(Br)c(OCCN(C)C)c4)cn3)c(C3CC3)c2)no1 [Example 1, N-(4-bromo-3-(2-(dimethylamino)ethoxy)phenyl)-6-(2-cyclopropyl-4-(5-methyl-1,2,4-oxadiazol-3-yl)phenyl)nicotinamide] | 0.79 | – | – | –
14 | 0.58 | – | Cc1nc(-c2ccc(-c3ccc(C(=O)Nc4ccc(Br)c(OCCN(C)C)c4)cn3)c(F)c2)no1 [Example 2, N-(4-bromo-3-(2-(dimethylamino)ethoxy)phenyl)-6-(2-fluoro-4-(5-methyl-1,2,4-oxadiazol-3-yl)phenyl)nicotinamide] | 1.11 | – | – | –
15 | 0.99 | – | Cc1nc(-c2ccc(-c3ccc(C(=O)Nc4ccc(C#N)c(OCCN(C)C)c4)cn3)c(Cl)c2)no1 [Example 9, 6-(2-chloro-4-(5-methyl-1,2,4-oxadiazol-3-yl)phenyl)-N-(4-cyano-3-(2-(dimethylamino)ethoxy)phenyl)nicotinamide] | 0.88 | – | – | –
16 | 1.08 | – | Cc1nc(-c2ccc(-c3ccc(C(=O)Nc4cc(OCCN(C)C)c(Br)cn4)cc3)c(F)c2)no1 [Example 16, N-(5-bromo-4-(2-(dimethylamino)ethoxy)pyridin-2-yl)-2′-fluoro-4′-(5-methyl-1,2,4-oxadiazol-3-yl)-[1,1′-biphenyl]-4-carboxamide] | 0.46 | – | – | –
17 | 1.17 | – | Cc1nc(-c2ccc(-c3ccc(C(=O)Nc4cc(OCCN(C)C)c(Br)cn4)cc3)c(C(F)(F)F)c2)no1 [Example 18, N-(5-bromo-4-(2-(dimethylamino)ethoxy)pyridin-2-yl)-4′-(5-methyl-1,2,4-oxadiazol-3-yl)-2′-(trifluoromethyl)-[1,1′-biphenyl]-4-carboxamide] | 0.42 | – | – | –
18 | 1.03 | – | Cc1nc(-c2ccc(-c3ccc(C(=O)Nc4ccc(C#N)c(OCCN(C)C)n4)cc3)c(C3CC3)c2)no1 [Example 30, N-(5-cyano-6-(2-(dimethylamino)ethoxy)pyridin-2-yl)-2′-cyclopropyl-4′-(5-methyl-1,2,4-oxadiazol-3-yl)-[1,1′-biphenyl]-4-carboxamide] | 2.8 | – | – | –
19 | 1.03 | – | Cc1nc(-c2ccc(-c3ccc(C(=O)Nc4ccc(Br)c(OCCN(C)C)n4)cn3)c(F)c2)no1 [Example 52, N-(5-bromo-6-(2-(dimethylamino)ethoxy)pyridin-2-yl)-6-(2-fluoro-4-(5-methyl-1,2,4-oxadiazol-3-yl)phenyl)nicotinamide] | 4.32 | – | – | –
20 | 0.6 | – | Cc1nc(-c2ccc(-c3ccc(C(=O)Nc4ccc(Br)c(OCCN(C)C)n4)cn3)c(Cl)c2)no1 [Example 53, N-(5-bromo-6-(2-(dimethylamino)ethoxy)pyridin-2-yl)-6-(2-chloro-4-(5-methyl-1,2,4-oxadiazol-3-yl)phenyl)nicotinamide] | 1.32 | – | – | –
21 | 1.53 | – | Cc1nc(-c2ccc(-c3ccc(NC(=O)c4ccc(C#N)c(OCCN(C)C)c4)cn3)c(Cl)c2)no1 [Example 73, N-(6-(2-chloro-4-(5-methyl-1,2,4-oxadiazol-3-yl)phenyl)pyridin-3-yl)-4-cyano-3-(2-(dimethylamino)ethoxy)benzamide] | 3.08 | – | – | –
